Measured values from patent US20160108049A1 (TAKEDA Gmbh, priority 2011, published 2016).

Key:
PDE4B1 = target: T1, PDE4B1 (Homo sapiens, UniProt Q07343); assay: Inhibition of PDE4 activity (PDE4B1, SPA assay); format: biochemical; conditions: recombinant PDE4B1, 0.5 μM cAMP; read-out: PDE4B1 Inhibitory values measured as -logIC50 (converted)
T1 construct: made in house; host or cells: SF21 insect cells (baculovirus; virus made in SF9 cells, pCR-Bac vector)
Procedure, shortened: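 Read-out is SPA yttrium silicate bead scintillation after IBMX-containing beads stop the reaction. Insect-cell (SF21) lysate enzyme hydrolysed 0.5 μM [3H]cAMP at pH 7.4 with 5 mM Mg2+ for 15 min after a 5 min 37 °C preincubation; IC50 fitted by non-linear regression.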

human PDE5 = target: T2, human PDE5 (Homo sapiens, UniProt O76074); assay: Inhibition of PDE5 activity (platelet lysate, SPA assay); format: biochemical; conditions: 0.5 μM cGMP, read-out: PDE5 Inhibitory values measured as -logIC50 (converted)
T2 construct: from tissue; host or cells: human platelets from fresh donor blood (platelet lysate)
Procedure, shortened: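 SPA readout of [3H]cGMP hydrolysis (0.5 μM, 15 min, 37 °C after 5 min preincubation), stopped with yttrium silicate beads containing IBMX. Enzyme was lysate from human platelets, used at 10–20% substrate turnover, with PDE3 (motapizone 1 μM) and PDE2 (10 nM) blockers present. IC50 values fitted non-linearly from concentration-effect curves.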

T1 sequence (Q07343 whole entry): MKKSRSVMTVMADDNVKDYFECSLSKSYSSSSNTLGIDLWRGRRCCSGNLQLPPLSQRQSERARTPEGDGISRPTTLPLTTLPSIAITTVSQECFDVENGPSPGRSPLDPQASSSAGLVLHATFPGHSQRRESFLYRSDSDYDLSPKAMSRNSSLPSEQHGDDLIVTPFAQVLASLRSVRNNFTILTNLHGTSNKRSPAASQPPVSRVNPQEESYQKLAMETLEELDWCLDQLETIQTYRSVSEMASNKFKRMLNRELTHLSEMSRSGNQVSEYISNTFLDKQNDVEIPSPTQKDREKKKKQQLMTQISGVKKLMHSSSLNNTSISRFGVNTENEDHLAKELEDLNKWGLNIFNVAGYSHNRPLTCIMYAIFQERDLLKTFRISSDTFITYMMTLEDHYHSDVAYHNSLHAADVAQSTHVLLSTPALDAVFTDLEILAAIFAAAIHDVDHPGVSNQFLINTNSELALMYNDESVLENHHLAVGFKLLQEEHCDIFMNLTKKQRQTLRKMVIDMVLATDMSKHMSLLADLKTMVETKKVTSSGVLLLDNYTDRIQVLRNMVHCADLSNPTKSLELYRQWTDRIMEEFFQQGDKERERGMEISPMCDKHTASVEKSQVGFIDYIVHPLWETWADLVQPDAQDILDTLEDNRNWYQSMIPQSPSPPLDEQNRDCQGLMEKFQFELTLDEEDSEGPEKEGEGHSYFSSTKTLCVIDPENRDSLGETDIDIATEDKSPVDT

Structure (SMILES) | IC50 (PDE4B1) [nM] | IC50 (human PDE5) [nM]
COc1ccc(C2=NN(C3CCN(C(=O)[C@@H](Cc4c[nH]cn4)NC(=O)c4c[nH]c5c(-c6c(OCC7CC7)ccc7c6OCO7)ncnc45)CC3)C(=O)[C@@H]3CCCC[C@H]23)cc1OC [Example 89, 4-[5-(cyclopropylmethoxy)-1,3-benzodioxol-4-yl]-N-[(2R)-1-{4-[(4aS,8aR)-4-(3,4-dimethoxyphenyl)-1-oxo-4a,5,6,7,8,8a-hexahydrophthalazin-2(1H)-yl]piperidin-1-yl}-3-(1H-imidazol-4-yl)-1-oxopropan-2-yl]-5H-pyrrolo[3,2-d]pyrimidine-7-carboxamide] | < 1 | < 1
COc1ccc(C2=NN(C3CCN(C(=O)[C@H](Cc4c[nH]cn4)NC(=O)c4c[nH]c5c(-c6c(OCC7CC7)ccc7c6OCO7)ncnc45)CC3)C(=O)[C@@H]3CCCC[C@H]23)cc1OC [Example 90, 4-[5-(cyclopropylmethoxy)-1,3-benzodioxol-4-yl]-N-[(2S)-1-{4-[(4aS,8aR)-4-(3,4-dimethoxyphenyl)-1-oxo-4a,5,6,7,8,8a-hexahydrophthalazin-2(1H)-yl]piperidin-1-yl}-3-(1H-imidazol-4-yl)-1-oxopropan-2-yl]-5H-pyrrolo[3,2-d]pyrimidine-7-carboxamide] | < 1 | < 1
COc1ccc(C2=NN(C3CCN(C(=O)[C@@H](Cc4c[nH]c5ccccc45)NC(=O)c4c[nH]c5c(-c6c(OCC7CC7)ccc7c6OCO7)ncnc45)CC3)C(=O)[C@@H]3CCCC[C@H]23)cc1OC [Example 91, 4-[5-(cyclopropylmethoxy)-1,3-benzodioxol-4-yl]-N-[(2R)-1-{4-[(4aS,8aR)-4-(3,4-dimethoxyphenyl)-1-oxo-4a,5,6,7,8,8a-hexahydrophthalazin-2(1H)-yl]piperidin-1-yl}-3-(1H-indol-3-yl)-1-oxopropan-2-yl]-5H-pyrrolo[3,2-d]pyrimidine-7-carboxamide] | < 1 | < 1
COc1ccc(C2=NN(C3CCN(C(=O)C(Cc4c[nH]c5ccccc45)NC(=O)c4c[nH]c5c(-c6c(OCC7CC7)ccc7c6OCO7)ncnc45)CC3)C(=O)C3CCCCC23)cc1OC [Example 92, 4-[5-(cyclopropylmethoxy)-1,3-benzodioxol-4-yl]-N-[(2S)-1-{4-[(4aS,8aR)-4-(3,4-dimethoxyphenyl)-1-oxo-4^a,5,6,7,8,8^a-hexahydrophthalazin-2(1H)-yl]piperidin-1-yl}-3-(1H-indol-3-yl)-1-oxopropan-2-yl]-5H-pyrrolo[3,2-d]pyrimidine-7-carboxamide] | < 1 | < 1
COc1ccc(C2=NN(C3CCN(C(=O)[C@@H](Cc4cn(C)c5ccccc45)NC(=O)c4c[nH]c5c(-c6c(OCC7CC7)ccc7c6OCO7)ncnc45)CC3)C(=O)[C@@H]3CCCC[C@H]23)cc1OC [Example 93, 4-[5-(cyclopropylmethoxy)-1,3-benzodioxol-4-yl]-N-[(2R)-1-{4-[(4aS,8aR)-4-(3,4-dimethoxyphenyl)-1-oxo-4a,5,6,7,8,8a-hexahydrophthalazin-2(1H)-yl]piperidin-1-yl}-3-(1-methyl-1H-indol-3-yl)-1-oxopropan-2-yl]-5H-pyrrolo[3,2-d]pyrimidine-7-carboxamide] | < 1 | 1 to 10
COc1ccc(C2=NN(C3CCN(C(=O)[C@H](CC4CCCCC4)NC(=O)c4c[nH]c5c(-c6c(OCC7CC7)ccc7c6OCO7)ncnc45)CC3)C(=O)C(C)(C)C2)cc1OC [Example 94, N-[(2S)-3-cyclohexyl-1-{4-[3-(3,4-dimethoxyphenyl)-5,5-dimethyl-6-oxo-5,6-dihydropyridazin-1(4H)-yl]piperidin-1-yl}-1-oxopropan-2-yl]-4-[5-(cyclopropylmethoxy)-1,3-benzodioxol-4-yl]-5H-pyrrolo[3,2-d]pyrimidine-7-carboxamide] | 1 to 10 | < 1
COc1ccc(C2=NN(C3CCN(C(=O)[C@@H](CC(C)C)NC(=O)c4c[nH]c5c(-c6c(OCC7CC7)ccc7c6OCO7)ncnc45)CC3)C(=O)[C@@H]3CCCC[C@H]23)cc1OC [Example 95, 4-[5-(cyclopropylmethoxy)-1,3-benzodioxol-4-yl]-N-[(2R)-1-{4-[(4aS,8aR)-4-(3,4-dimethoxyphenyl)-1-oxo-4a,5,6,7,8,8a-hexahydrophthalazin-2(1H)-yl]piperidin-1-yl}-4-methyl-1-oxopentan-2-yl]-5H-pyrrolo[3,2-d]pyrimidine-7-carboxamide] | < 1 | < 1
COc1ccc(C2=NN(C3CCN(C(=O)[C@@H](CN(C)C)NC(=O)c4c[nH]c5c(-c6c(OCC7CC7)ccc7c6OCO7)ncnc45)CC3)C(=O)[C@@H]3CCCC[C@H]23)cc1OC [Example 96, 4-[5-(cyclopropylmethoxy)-1,3-benzodioxol-4-yl]-N-[(2R)-1-{4-[(4aS,8aR)-4-(3,4-dimethoxyphenyl)-1-oxo-4a,5,6,7,8,8a-hexahydrophthalazin-2(1H)-yl]piperidin-1-yl}-3-(dimethylamino)-1-oxopropan-2-yl]-5H-pyrrolo[3,2-d]pyrimidine-7-carboxamide] | 1 to 10 | 1 to 10
COc1ccc(C2=NN(C3CCN(C(=O)[C@H](CN(C)C)NC(=O)c4c[nH]c5c(-c6c(OCC7CC7)ccc7c6OCO7)ncnc45)CC3)C(=O)[C@@H]3CCCC[C@H]23)cc1OC [Example 97, 4-[5-(cyclopropylmethoxy)-1,3-benzodioxol-4-yl]-N-[(2S)-1-{4-[(4aS,8aR)-4-(3,4-dimethoxyphenyl)-1-oxo-4a,5,6,7,8,8a-hexahydrophthalazin-2(1H)-yl]piperidin-1-yl}-3-(dimethylamino)-1-oxopropan-2-yl]-5H-pyrrolo[3,2-d]pyrimidine-7-carboxamide] | 1 to 10 | 1 to 10
COc1ccc(C2=NN(C3CCN(C(=O)[C@@H](CCSC)NC(=O)c4c[nH]c5c(-c6c(OCC7CC7)ccc7c6OCO7)ncnc45)CC3)C(=O)[C@@H]3CCCC[C@H]23)cc1OC [Example 98, 4-[5-(cyclopropylmethoxy)-1,3-benzodioxol-4-yl]-N-[(2R)-1-{4-[(4aS,8aR)-4-(3,4-dimethoxyphenyl)-1-oxo-4a,5,6,7,8,8a-hexahydrophthalazin-2(1H)-yl]piperidin-1-yl}-4-(methylsulfanyl)-1-oxobutan-2-yl]-5H-pyrrolo[3,2-d]pyrimidine-7-carboxamide] | < 1 | < 1
COc1ccc(C2=NN(C3CCN(C(=O)[C@@H](Cc4ccc(Br)cc4)NC(=O)c4c[nH]c5c(-c6c(OCC7CC7)ccc7c6OCO7)ncnc45)CC3)C(=O)[C@@H]3CCCC[C@H]23)cc1OC [Example 99, N-[(2R)-3-(4-bromophenyl)-1-{4-[(4aS,8aR)-4-(3,4-dimethoxyphenyl)-1-oxo-4a,5,6,7,8,8a-hexahydrophthalazin-2(1H)-yl]piperidin-1-yl}-1-oxopropan-2-yl]-4-[5-(cyclopropylmethoxy)-1,3-benzodioxol-4-yl]-5H-pyrrolo[3,2-d]pyrimidine-7-carboxamide] | 1 to 10 | 1 to 10
COc1ccc(C2=NN(C3CCN(C(=O)[C@@H](CCC(=O)OCc4ccccc4)NC(=O)c4c[nH]c5c(-c6c(OCC7CC7)ccc7c6OCO7)ncnc45)CC3)C(=O)[C@@H]3CCCC[C@H]23)cc1OC [Example 100, Benzyl (4R)-4-[({4-[5-(cyclopropylmethoxy)-1,3-benzodioxol-4-yl]-5H-pyrrolo[3,2-d]pyrimidin-7-yl}carbonyl)amino]-5-{4-[(4aS,8aR)-4-(3,4-dimethoxyphenyl)-1-oxo-4a,5,6,7,8,8a-hexahydrophthalazin-2(1H)-yl]piperidin-1-yl}-5-oxopentanoate] | 1 to 10 | 1 to 10
COc1ccc(C2=NN(C3CCN(C(=O)[C@@H](CCC(=O)O)NC(=O)c4c[nH]c5c(-c6c(OCC7CC7)ccc7c6OCO7)ncnc45)CC3)C(=O)[C@@H]3CCCC[C@H]23)cc1OC [Example 101, (4R)-4-[({4-[5-(cyclopropylmethoxy)-1,3-benzodioxol-4-yl]-5H-pyrrolo[3,2-d]pyrimidin-7-yl}carbonyl)amino]-5-{4-[(4aS,8aR)-4-(3,4-dimethoxyphenyl)-1-oxo-4a,5,6,7,8,8a-hexahydrophthalazin-2(1H)-yl]piperidin-1-yl}-5-oxopentanoic acid] | 1 to 10 | 1 to 10
COc1ccc(C2=NN(C3CCN(C(=O)[C@H](CCC(=O)N4CCCC4)NC(=O)c4c[nH]c5c(-c6c(OCC7CC7)ccc7c6OCO7)ncnc45)CC3)C(=O)[C@@H]3CCCC[C@H]23)cc1OC [Example 102, 4-[5-(cyclopropylmethoxy)-1,3-benzodioxol-4-yl]-N-[(2S)-1-{4-[(4aS,8aR)-4-(3,4-dimethoxyphenyl)-1-oxo-4a,5,6,7,8,8a-hexahydrophthalazin-2(1H)-yl]piperidin-1-yl}-1,5-dioxo-5-(pyrrolidin-1-yl)pentan-2-yl]-5H-pyrrolo[3,2-d]pyrimidine-7-carboxamide] | 1 to 10 | 1 to 10
COc1ccc(C2=NN(C3CCN(C(=O)[C@H](CCC(=O)OCc4ccccc4)NC(=O)c4c[nH]c5c(-c6c(OCC7CC7)ccc7c6OCO7)ncnc45)CC3)C(=O)[C@@H]3CCCC[C@H]23)cc1OC [Example 104, Benzyl (4S)-4-[({4-[5-(cyclopropylmethoxy)-1,3-benzodioxol-4-yl]-5H-pyrrolo[3,2-d]pyrimidin-7-yl}carbonyl)amino]-5-{4-[(4aS,8aR)-4-(3,4-dimethoxyphenyl)-1-oxo-4a,5,6,7,8,8a-hexahydrophthalazin-2(1H)-yl]piperidin-1-yl}-5-oxopentanoate] | 1 to 10 | 1 to 10
